Like-named read-outs stand apart in the source and are kept apart here.
What was measured:
[1] = test system: MCF-7 breast adenocarcinoma cells; test: MTT cell viability assay, MCF-7; conditions: for IC50 / viability at 10 µM: Homo sapiens, MCF7, 72 h; for viability at 10 µM: read-out: cell viability percentage in relation to control, MCF-7; for SI MCF-7 (selectivity index versus NHDF): MCF-7 versus NHDF, 72 h
Procedure: (§1) To evaluate the anticancer potential of monomethine cyanine dyes 1–12, a cell proliferation study was conducted using the 3-(4,5-dimethylthiazol-2-yl)-2,5-diphenyltetrazolium bromide (MTT) assay. For this preliminary evaluation, a concentration of 10 µM for each dye was tested, with the well-established chemotherapy agent 5-fluorouracil (5-FU) serving as a positive control. The assay included normal human dermal fibroblasts (NHDF) as non-tumor cells, alongside tumor cell lines from colorectal (Caco-2), prostate (PC-3), and breast (MCF-7) adenocarcinomas.
(§2) The cell lines used in this study (Caco-2, MCF-7, PC-3, and NHDF) were obtained from the American Type Culture Collection (ATCC, Manassas, VA, USA) and cultured in 75 cm^2 culture flasks at 37 °C in a humidified atmosphere with 5% CO2 in a LEEC Culture Safe Precision CO2 Incubator. PC-3 cells were grown in Roswell Park Memorial Institute (RPMI) medium supplemented with 10% of inactivated Fetal Bovine Serum (FBS) and 1% of an antibiotic mixture (Sp; 10,000 U/mL of penicillin G and […] of streptomycin). MCF-7 and Caco-2 cell lines were both cultured using Dulbecco’s Modified Eagle Medium (DMEM). However, the medium for MCF-7 cells was complemented with 10% of inactivated FBS and 1% of antibiotic/antimycotic mixture (Ab; 10,000 U/mL of penicillin G, […] of streptomycin and 25 µg/mL of amphotericin B), and the medium for Caco-2 cells was supplemented with 20% of inactivated FBS and 1% of Sp. Finally, RPMI medium supplemented with 10% FBS, 2 mM of L-glutamine, 10 mM of 4-(2-hydroxyethyl)-1-piperazineethanesulfonic acid (HEPES), 1 mM of sodium pyruvate, and 1% of Ab was used to culture NHDF cells. The culture media were renewed every two to three days until near confluence was achieved. Then, cells were detached using a solution of 0.125 g/L of trypsin and 0.02 g/L of ethylenediaminetetracetic acid (EDTA), counted by the trypan blue method, resuspended, and adequately seeded to continue the culture in 75 cm^2 flasks or for the experiments described below. All manipulations were performed in a Labculture Class II A2 Biological Safety Cabinet.
(§3) After trypsinization, cells were seeded in 96-well culture plates (100 µL; 2 × 10^4 cells/mL), and after 48 h (for adherence), they were incubated with the compounds under study in the absence of light for a duration of 72 h. Then, the medium was removed, and fresh incomplete culture medium (without FBS and Ab or Sp) and MTT solution [5 mg/mL in phosphate buffer saline (PBS)] were added to each well, followed by 4 h of incubation. After this, the medium containing MTT was removed and DMSO was added to dissolve formazan crystals. The absorbance of each well at 570 nm was determined using a microplate spectrophotometer Bio-Rad (Hercules, CA, USA) xMark. Untreated cells were considered the negative control, and 5-FU, a clinically used drug, was considered the positive control. For data analysis, the relative cell proliferation relative to the negative control cells was calculated. For each cell viability study, at least two independent assays in quadruplicate were performed. Increasing concentrations of the compounds between 0.001 and 100 μM were used to determine the IC50 values.

[2] = test system: PC-3 prostate adenocarcinoma cells; test: MTT cell viability assay, PC-3; conditions: 72 h; for IC50 / viability at 10 µM: Homo sapiens; for viability at 10 µM: read-out: cell viability percentage in relation to control, PC-3; for SI PC-3 (selectivity index versus NHDF): PC-3 versus NHDF
Procedure: as §1, §2, §3

[3] = test system: normal human dermal fibroblasts (NHDF); test: MTT cell viability assay, NHDF; format: cell-based; conditions: Homo sapiens; NHDF, 72 h incubation, MTT, absence of light; read-out: IC50 NHDF
Procedure: (§4) The cell lines used in this study (Caco-2, MCF-7, PC-3, and NHDF) were obtained from the American Type Culture Collection (ATCC, Manassas, VA, USA) and cultured in 75 cm^2 culture flasks at 37 °C in a humidified atmosphere with 5% CO2 in a LEEC Culture Safe Precision CO2 Incubator. PC-3 cells were grown in Roswell Park Memorial Institute (RPMI) medium supplemented with 10% of inactivated Fetal Bovine Serum (FBS) and 1% of an antibiotic mixture (Sp; 10,000 U/mL of penicillin G and 100 mg/mL of streptomycin). MCF-7 and Caco-2 cell lines were both cultured using Dulbecco’s Modified Eagle Medium (DMEM). However, the medium for MCF-7 cells was complemented with 10% of inactivated FBS and 1% of antibiotic/antimycotic mixture (Ab; 10,000 U/mL of penicillin G, 100 mg/mL of streptomycin and 25 µg/mL of amphotericin B), and the medium for Caco-2 cells was supplemented with 20% of inactivated FBS and 1% of Sp. Finally, RPMI medium supplemented with 10% FBS, 2 mM of L-glutamine, 10 mM of 4-(2-hydroxyethyl)-1-piperazineethanesulfonic acid (HEPES), 1 mM of sodium pyruvate, and 1% of Ab was used to culture NHDF cells. The culture media were renewed every two to three days until near confluence was achieved. Then, cells were detached using a solution of 0.125 g/L of trypsin and 0.02 g/L of ethylenediaminetetracetic acid (EDTA), counted by the trypan blue method, resuspended, and adequately seeded to continue the culture in 75 cm^2 flasks or for the experiments described below. All manipulations were performed in a Labculture Class II A2 Biological Safety Cabinet.

[4] = MTT cell viability assay, NHDF; format: cell-based, human; conditions: human, normal human dermal fibroblasts (NHDF); 10 µM, 72 h, mean ± SD; read-out: cell viability percentage in relation to control, NHDF
Procedure: as §4

Caco-2 cells = test: Cell cycle distribution by PI staining and flow cytometry; format: cell-based, human
Procedure: After excluding sub-G1 events, we proceeded to evaluate the impact of dyes 5 and 10 on cell cycle distribution.
Apoptosis (sub-G1 events) and cell cycle distribution were evaluated by propidium iodide (PI) staining and flow cytometry, as described by Riccardi and Nicolleti. After 48 h of Caco-2 cells (2 mL; 3 × 10^4 cells/mL) adherence in 6-well plates, the culture medium was substituted with the test solutions (3 mL and 5 mL for negative control) and incubated for a further 72 or 120 h. Untreated cells were used as the negative control, and sorbitol and 5-FU were used as positive controls. After incubation, the supernatant was collected in a centrifuge tube, cells were washed with PBS, trypsinized and wells were once again washed with PBS. This cell suspension was maintained on ice, centrifugated at 300 g for 5 min, and then the pellet was resuspended in 0.5 mL of PBS. Cells were fixed by adding 4.5 mL of 70% ethanol cooled at −20 °C on ice and were stored at −20 °C for a period ranging from one to a few days. On the day of flow cytometry analysis, PBS was added to the fixed cell tubes, followed by centrifugation and removal of the supernatant. The pellet was resuspended in 0.5 mL of PBS and 0.5 mL of DNA extraction solution (192 mL of 0.2 M sodium phosphate and 8 mL of 0.1% Triton X-100, pH 7.8). After incubation for 5 min, the cells were once again centrifuged, the supernatant was removed, and the pellet was resuspended in 0.3 mL of staining solution (20 µg/mL of PI and 0.2 mg/mL of DNase-free RNase in PBS). Using a FACSCalibur flow cytometer (Becton Dickinson, Franklin Lakes, NJ, USA) with a 488 nm laser line, a minimum of 20,000 events were acquired and recorded using the BD CellQuestTM Pro 4.0.2 software, and analyzed with FlowJo 10.5.3 software. To exclude debris and necrotic cells, events with a lower diameter (forward scatter; FCS) and PI fluorescence (FL3) than the hypodiploid apoptotic cells were eliminated (Figures S1 and S2). Two independent experiments were performed. A Student’s t-test was performed to evaluate the statistical significance of the results.

[5] = read-out: IC50 MCF-7, MCF-7, 72 h incubation, MTT
[6] = read-out: IC50 PC-3, PC-3, 72 h incubation, MTT

SMILES: O=c1[nH]cc(F)c(=O)[nH]1 [5-FU, 5-fluorouracil, reference compound]
- IC50 ([1]; read-out: IC50 MCF-7): 2.12 µM
- viability at 10 µM [1]: 25.3 ± 4.94%
- SI MCF-7 (selectivity index versus NHDF) [1]: 2.1
- IC50 ([2]; read-out: IC50 PC-3): 2.43 µM
- viability at 10 µM [2]: 20.5 ± 2.3%
- SI PC-3 (selectivity index versus NHDF) [2]: 1.9
- IC50 [3]: 4.53 µM
- viability at 72 h, 10 µM [4]: 10.5 ± 0.74%
- proportion of cells in G0/G1 phase (Caco-2 cells; Caco-2, 10 µM, 72 h): 10.1%
- proportion of cells in S phase (Caco-2 cells; Caco-2, 10 µM, 72 h): around 80.3%

SMILES: CN1C(=Cc2oc3ccccc3[n+]2C)C=Cc2ccccc21.Cc1ccc(S(=O)(=O)[O-])cc1 [Dye 5, 3-Methyl-2-((1-methylquinolin-2(1H)-ylidene)methyl)benzo[d]oxazol-3-ium 4-methylbenzenesulfonate]
- IC50 [1, 5]: 3.83 µM
- viability at 10 µM [1]: 6.34 ± 1.06%
- SI MCF-7 (selectivity index versus NHDF) [1]: 0.7
- IC50 [2, 6]: 1.43 µM
- viability at 10 µM [2]: 3.47 ± 0.95%
- SI PC-3 (selectivity index versus NHDF) [2]: 1.9
- IC50 [3]: 2.79 µM
- viability at 72 h, 10 µM [4]: 15.4 ± 1.82%
- effect on cell cycle distribution (Caco-2 cells; Caco-2, 1 µM, 72 and 120 h): did not significantly alter the cell cycle distribution

SMILES: CCN1C(=Cc2sc3cc([N+](=O)[O-])ccc3[n+]2CC)Sc2ccccc21.Cc1ccc(S(=O)(=O)[O-])cc1 [Dye 10, 3-Ethyl-2-((3-ethylbenzo[d]thiazol-2(3H)-ylidene)methyl)-6-nitrobenzo[d]thiazol-3-ium 4-methylbenzenesulfonate]
- IC50 [1, 5]: 13.3 µM
- viability at 10 µM [1]: 10.6 ± 6.44%
- SI MCF-7 (selectivity index versus NHDF) [1]: 1.7
- IC50 [2, 6]: 5.93 µM
- viability at 10 µM [2]: 14.4 ± 1.6%
- SI PC-3 (selectivity index versus NHDF) [2]: 3.8
- IC50 [3]: 22.4 µM
- viability at 72 h, 10 µM [4]: 34.3 ± 1.99%
- proportion of cells in G0/G1 phase (Caco-2 cells; Caco-2, 10 µM, 72 h): approximately 62.0%
- proportion of cells in G2/M phase (Caco-2 cells; Caco-2, 10 µM, 72 h): 6.6%

— paper PMC11642940, “A New Demand for Improved Selectivity and Potency of Cyanine Dyes as Antiproliferative Agents Against Colorectal Cancer Cells” (Molecules, 2024)
